ChEMBL document CHEMBL3885881, “DrugMatrix”

Species: Rattus norvegicus
Assay: DrugMatrix - Regimen: Daily Repeat
Format: toxicity, organism-based, Sprague-Dawley
Design: regimen Daily Repeat, gender Male, age 6-8 weeks
Details: in vivo, po, […], route oral GAVAGE; for ABSOLUTE BASOPHIL / ABSOLUTE EOSINOPHIL / ABSOLUTE LYMPHOCYTE / ABSOLUTE MONOCYTE / ABSOLUTE SEGMENTED NEUTROPHIL / BASOPHIL / EOSINOPHIL / ERYTHROCYTE COUNT / HEMATOCRIT / HEMOGLOBIN / LEUKOCYTE COUNT / LYMPHOCYTE / MEAN CORPUSCULAR HEMOGLOBIN / MEAN CORPUSCULAR HEMOGLOBIN CONCENTRATION / MEAN CORPUSCULAR VOLUME / MONOCYTE / NEUTROPHIL / NUCLEATED RED BLOOD CELLS / PLATELET COUNT: tissue Blood; for ALANINE AMINOTRANSFERASE / ALKALINE PHOSPHATASE / ASPARTATE AMINOTRANSFERASE / BLOOD UREA NITROGEN / CARBON DIOXIDE / CHLORIDE / CHOLESTEROL / CREATINE PHOSPHOKINASE / CREATININE / GLUCOSE / LACTATE DEHYDROGENASE / LIPASE / PHOSPHORUS / POTASSIUM / SODIUM / TOTAL BILIRUBIN / TOTAL PROTEIN / URIC ACID: tissue Plasma
[1] = 100 mg/kg, dose level Low, time 7 day
[2] = 700 mg/kg, 72 h, dose level High, time 3 day
[3] = 700 mg/kg, dose level High, time 7 day

Structure (SMILES): Cc1ccc(C)c(OCCCC(C)(C)C(=O)O)c1 [GEMFIBROZIL]
- ABSOLUTE BASOPHIL [1]: 0 CELLS/uL
- ABSOLUTE EOSINOPHIL [1]: 45.5 CELLS/uL
- ABSOLUTE LYMPHOCYTE [1]: 9460.33 CELLS/uL
- ABSOLUTE MONOCYTE [1]: 128.67 CELLS/uL
- ABSOLUTE SEGMENTED NEUTROPHIL [1]: 965.5 CELLS/uL
- BASOPHIL [1]: 0%
- EOSINOPHIL [1]: 0.5%
- ERYTHROCYTE COUNT [1]: 5.75 x10E6/uL
- HEMATOCRIT [1]: 35.7%
- HEMOGLOBIN [1]: 13.7 G/DL
- LEUKOCYTE COUNT [1]: 10.6 x10E3/uL
- LYMPHOCYTE [1]: 89.83%
- MEAN CORPUSCULAR HEMOGLOBIN [1]: 23.82 pg
- MEAN CORPUSCULAR HEMOGLOBIN CONCENTRATION [1]: 38.42 G/DL
- MEAN CORPUSCULAR VOLUME [1]: 62.1 fL
- MONOCYTE [1]: 1.17%
- NEUTROPHIL [1]: 8.5%
- NUCLEATED RED BLOOD CELLS [1]: 0 /100WBC
- PLATELET COUNT [1]: 1237.17 x10E3/uL
- ALANINE AMINOTRANSFERASE [1]: 75.17 u/L
- ALKALINE PHOSPHATASE [1]: 388.67 u/L
- ASPARTATE AMINOTRANSFERASE [1]: 80.67 u/L
- BLOOD UREA NITROGEN [1]: 15.5 mg/dL
- CARBON DIOXIDE [1]: 29.17 mmol/L
- CHLORIDE [1]: 103.5 MEQ/L
- CHOLESTEROL [1]: 70.33 mg/dL
- CREATINE PHOSPHOKINASE [1]: 220 u/L
- CREATININE [1]: 0.26 mg/dL
- GLUCOSE [1]: 138.5 mg/dL
- LACTATE DEHYDROGENASE [1]: 151.33 u/L
- LIPASE [1]: 11.5 u/L
- PHOSPHORUS [1]: 10.83 mg/dL
- POTASSIUM [1]: 6.07 MEQ/L
- SODIUM [1]: 145.42 MEQ/L
- TOTAL BILIRUBIN [1]: 0.15 mg/dL
- TOTAL PROTEIN [1]: 6.55 G/DL
- URIC ACID [1]: 0.9 mg/dL
- ABSOLUTE BASOPHIL [2]: 0 CELLS/uL
- ABSOLUTE EOSINOPHIL [2]: 123.83 CELLS/uL
- ABSOLUTE LYMPHOCYTE [2]: 14360.17 CELLS/uL
- ABSOLUTE MONOCYTE [2]: 300 CELLS/uL
- ABSOLUTE SEGMENTED NEUTROPHIL [2]: 899.33 CELLS/uL
- BASOPHIL [2]: 0%
- EOSINOPHIL [2]: 0.83%
- ERYTHROCYTE COUNT [2]: 5.5 x10E6/uL
- HEMATOCRIT [2]: 34.9%
- HEMOGLOBIN [2]: 13.82 G/DL
- LEUKOCYTE COUNT [2]: 15.68 x10E3/uL
- LYMPHOCYTE [2]: 91.67%
- MEAN CORPUSCULAR HEMOGLOBIN [2]: 25.13 pg
- MEAN CORPUSCULAR HEMOGLOBIN CONCENTRATION [2]: 39.6 G/DL
- MEAN CORPUSCULAR VOLUME [2]: 63.5 fL
- MONOCYTE [2]: 1.83%
- NEUTROPHIL [2]: 5.67%
- NUCLEATED RED BLOOD CELLS [2]: 0 /100WBC
- PLATELET COUNT [2]: 1197.17 x10E3/uL
- ALANINE AMINOTRANSFERASE [2]: 74.67 u/L
- ALKALINE PHOSPHATASE [2]: 606 u/L
- ASPARTATE AMINOTRANSFERASE [2]: 80.5 u/L
- BLOOD UREA NITROGEN [2]: 11.33 mg/dL
- CARBON DIOXIDE [2]: 30.67 mmol/L
- CHLORIDE [2]: 101.5 MEQ/L
- CHOLESTEROL [2]: 61 mg/dL
- CREATINE PHOSPHOKINASE [2]: 247.5 u/L
- CREATININE [2]: 0.21 mg/dL
- GLUCOSE [2]: 143.5 mg/dL
- LACTATE DEHYDROGENASE [2]: 254.17 u/L
- LIPASE [2]: 9.67 u/L
- PHOSPHORUS [2]: 8.5 mg/dL
- POTASSIUM [2]: 6.29 MEQ/L
- SODIUM [2]: 141.78 MEQ/L
- TOTAL BILIRUBIN [2]: 0.32 mg/dL
- TOTAL PROTEIN [2]: 5.85 G/DL
- URIC ACID [2]: 1.33 mg/dL
- ABSOLUTE BASOPHIL [3]: 0 CELLS/uL
- ABSOLUTE EOSINOPHIL [3]: 34.5 CELLS/uL
- ABSOLUTE LYMPHOCYTE [3]: 11212.67 CELLS/uL
- ABSOLUTE MONOCYTE [3]: 304.17 CELLS/uL
- ABSOLUTE SEGMENTED NEUTROPHIL [3]: 1732 CELLS/uL
- BASOPHIL [3]: 0%
- EOSINOPHIL [3]: 0.5%
- ERYTHROCYTE COUNT [3]: 5.46 x10E6/uL
- HEMATOCRIT [3]: 32.9%
- HEMOGLOBIN [3]: 12.75 G/DL
- LEUKOCYTE COUNT [3]: 13.28 x10E3/uL
- LYMPHOCYTE [3]: 85.5%
- MEAN CORPUSCULAR HEMOGLOBIN [3]: 23.43 pg
- MEAN CORPUSCULAR HEMOGLOBIN CONCENTRATION [3]: 38.82 G/DL
- MEAN CORPUSCULAR VOLUME [3]: 60.37 fL
- MONOCYTE [3]: 2.17%
- NEUTROPHIL [3]: 11.83%
- NUCLEATED RED BLOOD CELLS [3]: 0 /100WBC
- PLATELET COUNT [3]: 1336.17 x10E3/uL
- ALANINE AMINOTRANSFERASE [3]: 90.83 u/L
- ALKALINE PHOSPHATASE [3]: 504.17 u/L
- ASPARTATE AMINOTRANSFERASE [3]: 94.83 u/L
- BLOOD UREA NITROGEN [3]: 12.17 mg/dL
- CARBON DIOXIDE [3]: 31.17 mmol/L
- CHLORIDE [3]: 101.17 MEQ/L
- CHOLESTEROL [3]: 60.5 mg/dL
- CREATINE PHOSPHOKINASE [3]: 391.67 u/L
- CREATININE [3]: 0.29 mg/dL
- GLUCOSE [3]: 135.67 mg/dL
- LACTATE DEHYDROGENASE [3]: 275.5 u/L
- LIPASE [3]: 12 u/L
- PHOSPHORUS [3]: 9.5 mg/dL
- POTASSIUM [3]: 5.98 MEQ/L
- SODIUM [3]: 142.85 MEQ/L
- TOTAL BILIRUBIN [3]: 0.22 mg/dL
- TOTAL PROTEIN [3]: 6.58 G/DL
- URIC ACID [3]: 0.87 mg/dL
